# Assays:
# EPHB6 [1] = molecular target: T1, EPHB6 (Homo sapiens, UniProt O15197); assay: KINOMEscan competition binding, single concentration […]; conditions: read-out: % of control at 100 nM
# CSF1R [2] = molecular target: T2, CSF1R (Homo sapiens, UniProt P07333); assay: as above; conditions: read-out: % of control at 100 nM
# KIT [3] = molecular target: T3, KIT (Homo sapiens, UniProt P10721); assay: as above; conditions: read-out: % of control at 100 nM
# RIP1 [4] = molecular target: T4, RIP1 (Homo sapiens, UniProt Q13546); assay: KINOMEscan competition binding Kd; also ADP-Glo kinase inhibition
# T4 construct: gene RIPK1; kinase domain
# RIP3 = molecular target: T5, RIP3 (Homo sapiens, UniProt Q9Y572); assay: as above
# T5 construct: gene RIPK3; kinase domain
# MEK5 [5] = molecular target: T6, MEK5 (Homo sapiens, UniProt Q13163); assay: KINOMEscan competition binding, single concentration […]; conditions: read-out: % of control at 100 nM
# T6 construct: gene MAP2K5
# [6] = molecular target: T7, ABL1(E255K)-phosphorylated (Homo sapiens, UniProt P00519, E255K); assay: biochemical; design: KINOMEscan competition binding assay (DiscoveRx), per cent of control at 100 nM; conditions: competition binding, per cent of DMSO control; read-out: Percent Control
# T7 construct: phosphorylated
# Protocol: (§1) The selectivity of GSK’074 was evaluated using KINOMEscan™ profiling service (DiscoveRx Corporation, Fremont, CA). In brief, an in vitro competition binding assay was used to evaluate GSK’074 specificity at a concentration of 100 nM against 468 human kinases including 403 non-mutant kinases and 65 mutant kinases, as described previously[33],[50]. KINOMEscan™ was also used to determine binding constants (Kd) for GSK’074 against RIP1 and RIP3. In brief, an 11-point threefold serial dilution of GSK’074 was prepared in 100% DMSO at 100× final test concentration and subsequently diluted to 1× in the assay buffer. Kds were calculated with a standard dose-response curve using the Hill equation. Curves were fitted using a non-linear least square fit with the Levenberg–Marquardt algorithm. Next, we investigated the selectivity profile of GSK’074 against a panel of 468 kinases, including 403 non-mutant kinases using the KINOMEscan™ profiling service. […] KIT, MEK5, CSF1R, or EPHB6 had no established roles in cell death and their expression levels in SMCs, with the exception of MEK5, were negligible (Supplementary Figure 3).  Fig. 6 Selectivity profile of GSK’074. Binding of GSK’074 (100 nM) against 468 human kinases (403 non-mutant kinases, 65 mutant kinases) was assessed by DiscoveRx KINOMEscan™. a Selectivity scores of GSK’074. Selectivity score was defined as the number of non-mutant kinases bound to GSK’074 <35% of control (S(35)), 10% of control (S(10)), or 1% of control (S(1)). b TREEspot map of kinases potentially targeted by GSK’074.
# [7] = molecular target: T8, ABL1(H396P)-nonphosphorylated (Homo sapiens, UniProt P00519, H396P); assay: biochemical; design: KINOMEscan competition binding assay (DiscoveRx), per cent of control at 100 nM; conditions: competition binding, per cent of DMSO control; read-out: Percent Control
# T8 construct: nonphosphorylated
# Protocol: as §1
# [8] = molecular target: T9, ABL1(Q252H)-nonphosphorylated (Homo sapiens, UniProt P00519, Q252H); assay: biochemical; design: KINOMEscan competition binding assay (DiscoveRx), per cent of control at 100 nM; conditions: competition binding, per cent of DMSO control; read-out: Percent Control
# T9 construct: nonphosphorylated
# Protocol: as §1
# [9] = molecular target: T10, ABL1(T315I)-nonphosphorylated (Homo sapiens, UniProt P00519, T315I); assay: biochemical; design: KINOMEscan competition binding assay (DiscoveRx), per cent of control at 100 nM; conditions: competition binding, per cent of DMSO control; read-out: Percent Control
# T10 construct: nonphosphorylated
# Protocol: as §1
# [10] = molecular target: T11, ABL1(T315I)-phosphorylated (Homo sapiens, UniProt P00519, T315I); assay: biochemical; design: KINOMEscan competition binding assay (DiscoveRx), per cent of control at 100 nM; conditions: competition binding, per cent of DMSO control; read-out: Percent Control
# T11 construct: phosphorylated
# Protocol: as §1
# ABL1-nonphosphorylated = molecular target: T12, ABL1-nonphosphorylated (Homo sapiens, UniProt P00519); assay: biochemical; design: KINOMEscan competition binding assay (DiscoveRx), per cent of control at 100 nM; conditions: competition binding, per cent of DMSO control; read-out: Percent Control
# T12 construct: nonphosphorylated
# Protocol: as §1
# ABL1-phosphorylated = molecular target: T13, ABL1-phosphorylated (Homo sapiens, UniProt P00519); assay: biochemical; design: KINOMEscan competition binding assay (DiscoveRx), per cent of control at 100 nM; conditions: competition binding, per cent of DMSO control; read-out: Percent Control
# T13 construct: phosphorylated
# Protocol: as §1
# AURKB = AURKB (Homo sapiens, UniProt Q96GD4); assay: biochemical; design: KINOMEscan competition binding assay (DiscoveRx), per cent of control at 100 nM; conditions: competition binding, per cent of DMSO control; read-out: Percent Control
# Protocol: as §1
# AURKC = AURKC (Homo sapiens, UniProt Q9UQB9); assay: biochemical; design: KINOMEscan competition binding assay (DiscoveRx), per cent of control at 100 nM; conditions: competition binding, per cent of DMSO control; read-out: Percent Control
# Protocol: as §1
# CSF1R [11] = molecular target: T2, CSF1R; assay: biochemical; design: KINOMEscan competition binding assay (DiscoveRx), per cent of control at 100 nM; conditions: competition binding, per cent of DMSO control; read-out: Percent Control
# Protocol: as §1
# EPHB6 [12] = molecular target: T1, EPHB6; assay: biochemical; design: KINOMEscan competition binding assay (DiscoveRx), per cent of control at 100 nM; conditions: competition binding, per cent of DMSO control; read-out: Percent Control
# Protocol: as §1
# FLT3 = FLT3 (Homo sapiens, UniProt P36888); assay: biochemical; design: KINOMEscan competition binding assay (DiscoveRx), per cent of control at 100 nM; conditions: competition binding, per cent of DMSO control; read-out: Percent Control
# Protocol: as §1
# FLT3(K663Q) = FLT3(K663Q) (Homo sapiens, UniProt P36888, K663Q); assay: biochemical; design: KINOMEscan competition binding assay (DiscoveRx), per cent of control at 100 nM; conditions: competition binding, per cent of DMSO control; read-out: Percent Control
# Protocol: as §1
# HPK1 = molecular target: T14, HPK1 (Homo sapiens, UniProt Q92918); assay: biochemical; design: KINOMEscan competition binding assay (DiscoveRx), per cent of control at 100 nM; conditions: competition binding, per cent of DMSO control; read-out: Percent Control
# T14 construct: gene MAP4K1
# Protocol: as §1
# KIT [13] = molecular target: T3, KIT; assay: biochemical; design: KINOMEscan competition binding assay (DiscoveRx), per cent of control at 100 nM; conditions: competition binding, per cent of DMSO control; read-out: Percent Control
# Protocol: as §1
# KIT(L576P) = KIT(L576P) (Homo sapiens, UniProt P10721, L576P); assay: biochemical; design: KINOMEscan competition binding assay (DiscoveRx), per cent of control at 100 nM; conditions: competition binding, per cent of DMSO control; read-out: Percent Control
# Protocol: as §1
# KIT(V559D) = KIT(V559D) (Homo sapiens, UniProt P10721, V559D); assay: biochemical; design: KINOMEscan competition binding assay (DiscoveRx), per cent of control at 100 nM; conditions: competition binding, per cent of DMSO control; read-out: Percent Control
# Protocol: as §1
# LOK = molecular target: T15, LOK (Homo sapiens, UniProt O94804); assay: biochemical; design: KINOMEscan competition binding assay (DiscoveRx), per cent of control at 100 nM; conditions: competition binding, per cent of DMSO control; read-out: Percent Control
# T15 construct: gene STK10
# Protocol: as §1
# MAP4K5 = MAP4K5 (Homo sapiens, UniProt Q9Y4K4); assay: biochemical; design: KINOMEscan competition binding assay (DiscoveRx), per cent of control at 100 nM; conditions: competition binding, per cent of DMSO control; read-out: Percent Control
# Protocol: as §1
# MEK5 [14] = molecular target: T6, MEK5; assay: biochemical; design: KINOMEscan competition binding assay (DiscoveRx), per cent of control at 100 nM; conditions: competition binding, per cent of DMSO control; read-out: Percent Control
# Protocol: as §1
# MST1 = molecular target: T16, MST1 (Homo sapiens, UniProt Q13043); assay: biochemical; design: KINOMEscan competition binding assay (DiscoveRx), per cent of control at 100 nM; conditions: competition binding, per cent of DMSO control; read-out: Percent Control
# T16 construct: gene STK4
# Protocol: as §1
# PDGFRA = PDGFRA (Homo sapiens, UniProt P16234); assay: biochemical; design: KINOMEscan competition binding assay (DiscoveRx), per cent of control at 100 nM; conditions: competition binding, per cent of DMSO control; read-out: Percent Control
# Protocol: as §1
# PDGFRB = PDGFRB (Homo sapiens, UniProt P09619); assay: biochemical; design: KINOMEscan competition binding assay (DiscoveRx), per cent of control at 100 nM; conditions: competition binding, per cent of DMSO control; read-out: Percent Control
# Protocol: as §1
# PRKD2 = PRKD2 (Homo sapiens, UniProt Q9BZL6); assay: biochemical; design: KINOMEscan competition binding assay (DiscoveRx), per cent of control at 100 nM; conditions: competition binding, per cent of DMSO control; read-out: Percent Control
# Protocol: as §1
# RIP1 [15] = molecular target: T4, RIP1; assay: biochemical; design: KINOMEscan competition binding assay (DiscoveRx), per cent of control at 100 nM; conditions: competition binding, per cent of DMSO control; read-out: Percent Control
# Protocol: as §1
# RIPK2 = RIPK2 (Homo sapiens, UniProt O43353); assay: biochemical; design: KINOMEscan competition binding assay (DiscoveRx), per cent of control at 100 nM; conditions: competition binding, per cent of DMSO control; read-out: Percent Control
# Protocol: as §1
# T6 sequence (Q13163 whole entry): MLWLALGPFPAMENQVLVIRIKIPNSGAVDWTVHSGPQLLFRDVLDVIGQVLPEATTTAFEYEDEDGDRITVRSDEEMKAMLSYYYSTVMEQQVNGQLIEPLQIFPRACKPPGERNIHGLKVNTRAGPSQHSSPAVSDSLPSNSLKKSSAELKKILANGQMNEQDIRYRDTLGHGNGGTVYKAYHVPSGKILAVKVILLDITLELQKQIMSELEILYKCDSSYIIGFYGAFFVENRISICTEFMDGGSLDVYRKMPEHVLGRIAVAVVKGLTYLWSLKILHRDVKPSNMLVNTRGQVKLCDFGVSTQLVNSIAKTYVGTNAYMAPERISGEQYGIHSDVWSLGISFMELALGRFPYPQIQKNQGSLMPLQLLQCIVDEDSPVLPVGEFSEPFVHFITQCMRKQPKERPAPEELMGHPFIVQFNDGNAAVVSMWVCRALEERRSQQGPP
# T3 sequence (P10721 26-976): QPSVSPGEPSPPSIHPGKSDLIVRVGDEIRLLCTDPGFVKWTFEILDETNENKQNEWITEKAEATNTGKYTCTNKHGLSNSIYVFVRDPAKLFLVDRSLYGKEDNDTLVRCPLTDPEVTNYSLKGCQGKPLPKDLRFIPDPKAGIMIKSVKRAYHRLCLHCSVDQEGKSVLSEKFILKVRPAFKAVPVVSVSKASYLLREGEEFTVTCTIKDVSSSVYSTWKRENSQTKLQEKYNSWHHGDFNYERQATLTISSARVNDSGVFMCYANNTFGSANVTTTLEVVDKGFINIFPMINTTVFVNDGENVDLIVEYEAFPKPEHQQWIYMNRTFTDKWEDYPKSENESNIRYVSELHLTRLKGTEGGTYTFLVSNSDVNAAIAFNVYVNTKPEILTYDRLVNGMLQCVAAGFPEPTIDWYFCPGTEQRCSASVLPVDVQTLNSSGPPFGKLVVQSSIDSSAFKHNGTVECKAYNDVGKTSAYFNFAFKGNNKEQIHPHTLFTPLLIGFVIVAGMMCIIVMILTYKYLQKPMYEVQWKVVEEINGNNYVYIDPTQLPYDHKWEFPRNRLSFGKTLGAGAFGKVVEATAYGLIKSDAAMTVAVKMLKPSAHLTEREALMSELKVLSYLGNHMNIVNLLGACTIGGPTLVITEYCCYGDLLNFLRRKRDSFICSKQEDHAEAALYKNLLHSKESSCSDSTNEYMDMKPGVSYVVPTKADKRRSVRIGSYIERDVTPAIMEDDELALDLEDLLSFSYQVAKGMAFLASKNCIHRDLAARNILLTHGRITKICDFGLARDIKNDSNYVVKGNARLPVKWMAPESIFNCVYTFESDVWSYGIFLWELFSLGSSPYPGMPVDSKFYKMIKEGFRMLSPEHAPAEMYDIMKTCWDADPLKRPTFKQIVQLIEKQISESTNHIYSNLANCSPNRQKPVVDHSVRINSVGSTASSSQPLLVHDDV
# T1 sequence (O15197 32-1021): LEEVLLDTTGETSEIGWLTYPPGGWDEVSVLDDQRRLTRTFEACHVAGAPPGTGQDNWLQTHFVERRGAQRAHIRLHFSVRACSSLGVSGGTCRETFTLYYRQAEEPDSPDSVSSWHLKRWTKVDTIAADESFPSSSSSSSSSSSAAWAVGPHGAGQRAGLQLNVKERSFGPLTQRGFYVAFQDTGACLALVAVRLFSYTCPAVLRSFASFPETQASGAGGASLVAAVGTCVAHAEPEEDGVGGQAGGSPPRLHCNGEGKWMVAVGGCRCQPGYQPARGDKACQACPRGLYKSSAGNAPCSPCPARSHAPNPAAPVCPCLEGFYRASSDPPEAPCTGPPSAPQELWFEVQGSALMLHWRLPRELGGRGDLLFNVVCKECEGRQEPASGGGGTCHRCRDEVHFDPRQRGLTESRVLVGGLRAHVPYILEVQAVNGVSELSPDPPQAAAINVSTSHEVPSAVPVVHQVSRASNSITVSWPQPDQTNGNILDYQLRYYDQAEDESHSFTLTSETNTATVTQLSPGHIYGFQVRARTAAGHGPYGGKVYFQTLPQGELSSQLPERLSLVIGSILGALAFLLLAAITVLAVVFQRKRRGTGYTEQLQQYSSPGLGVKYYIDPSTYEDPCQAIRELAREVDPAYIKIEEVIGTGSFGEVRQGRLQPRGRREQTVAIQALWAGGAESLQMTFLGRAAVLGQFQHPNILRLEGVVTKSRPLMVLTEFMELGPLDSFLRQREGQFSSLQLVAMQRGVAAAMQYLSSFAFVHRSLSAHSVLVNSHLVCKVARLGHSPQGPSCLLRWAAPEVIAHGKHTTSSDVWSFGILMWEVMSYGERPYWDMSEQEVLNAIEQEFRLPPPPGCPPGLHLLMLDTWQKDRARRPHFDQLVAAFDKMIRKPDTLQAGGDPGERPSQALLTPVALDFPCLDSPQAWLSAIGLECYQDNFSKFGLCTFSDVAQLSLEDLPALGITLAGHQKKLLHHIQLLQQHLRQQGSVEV
# T2 sequence (P07333 20-972): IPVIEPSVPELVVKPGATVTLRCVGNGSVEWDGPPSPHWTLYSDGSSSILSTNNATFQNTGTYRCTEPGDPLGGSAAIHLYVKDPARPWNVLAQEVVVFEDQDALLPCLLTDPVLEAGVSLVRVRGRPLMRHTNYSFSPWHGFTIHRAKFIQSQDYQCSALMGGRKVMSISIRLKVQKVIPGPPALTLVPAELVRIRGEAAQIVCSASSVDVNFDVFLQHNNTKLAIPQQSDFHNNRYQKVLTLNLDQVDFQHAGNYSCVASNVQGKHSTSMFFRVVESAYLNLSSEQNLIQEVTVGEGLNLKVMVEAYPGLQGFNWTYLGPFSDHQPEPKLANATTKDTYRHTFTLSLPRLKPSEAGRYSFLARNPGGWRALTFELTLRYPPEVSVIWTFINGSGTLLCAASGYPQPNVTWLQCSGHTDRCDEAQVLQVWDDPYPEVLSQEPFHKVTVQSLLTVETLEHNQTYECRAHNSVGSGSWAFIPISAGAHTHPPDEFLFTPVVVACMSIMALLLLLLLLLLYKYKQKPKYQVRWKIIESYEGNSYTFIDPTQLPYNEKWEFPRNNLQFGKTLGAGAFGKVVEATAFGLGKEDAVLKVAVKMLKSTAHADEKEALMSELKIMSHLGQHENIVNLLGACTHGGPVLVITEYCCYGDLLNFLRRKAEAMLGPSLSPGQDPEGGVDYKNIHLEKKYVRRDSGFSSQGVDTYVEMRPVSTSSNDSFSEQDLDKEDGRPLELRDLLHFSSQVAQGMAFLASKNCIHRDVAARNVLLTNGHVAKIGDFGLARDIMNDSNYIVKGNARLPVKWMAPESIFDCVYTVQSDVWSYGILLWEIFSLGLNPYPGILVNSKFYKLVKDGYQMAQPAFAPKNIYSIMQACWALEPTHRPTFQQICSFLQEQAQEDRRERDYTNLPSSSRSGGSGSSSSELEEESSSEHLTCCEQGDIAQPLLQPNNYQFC
# T4 sequence (Q13546 1-294 limits assumed): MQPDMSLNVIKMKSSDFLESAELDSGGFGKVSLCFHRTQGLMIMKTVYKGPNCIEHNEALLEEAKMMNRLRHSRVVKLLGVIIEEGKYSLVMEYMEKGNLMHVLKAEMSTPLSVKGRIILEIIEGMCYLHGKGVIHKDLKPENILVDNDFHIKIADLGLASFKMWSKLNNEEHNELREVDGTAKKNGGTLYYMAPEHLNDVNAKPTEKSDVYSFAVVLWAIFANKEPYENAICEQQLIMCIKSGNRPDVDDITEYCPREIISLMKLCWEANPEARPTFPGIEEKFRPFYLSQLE
# T14 sequence (Q92918 whole entry): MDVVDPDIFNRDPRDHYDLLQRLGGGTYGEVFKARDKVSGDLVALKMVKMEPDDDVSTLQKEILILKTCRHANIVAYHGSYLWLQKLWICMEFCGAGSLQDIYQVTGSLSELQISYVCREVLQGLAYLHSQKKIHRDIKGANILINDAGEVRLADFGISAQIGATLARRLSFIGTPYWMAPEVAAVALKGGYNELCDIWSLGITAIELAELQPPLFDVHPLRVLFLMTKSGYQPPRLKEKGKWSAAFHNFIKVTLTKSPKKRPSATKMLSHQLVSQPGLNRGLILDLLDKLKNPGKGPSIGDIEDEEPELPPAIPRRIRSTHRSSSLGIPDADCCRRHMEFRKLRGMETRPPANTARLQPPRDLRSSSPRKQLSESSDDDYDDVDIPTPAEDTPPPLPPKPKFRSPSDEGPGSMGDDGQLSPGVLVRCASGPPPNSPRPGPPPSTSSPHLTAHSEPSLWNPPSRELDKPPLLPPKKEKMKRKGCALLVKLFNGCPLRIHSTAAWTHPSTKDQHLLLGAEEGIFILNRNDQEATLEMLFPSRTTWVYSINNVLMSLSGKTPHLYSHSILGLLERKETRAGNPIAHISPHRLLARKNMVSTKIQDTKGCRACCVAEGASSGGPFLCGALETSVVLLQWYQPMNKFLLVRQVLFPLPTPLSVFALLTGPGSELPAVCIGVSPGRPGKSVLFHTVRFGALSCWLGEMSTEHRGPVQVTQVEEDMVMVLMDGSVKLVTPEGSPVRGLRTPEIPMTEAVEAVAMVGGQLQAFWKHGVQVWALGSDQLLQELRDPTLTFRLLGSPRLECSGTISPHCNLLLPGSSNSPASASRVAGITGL
# Chain of AURKB (Q96GD4 whole entry): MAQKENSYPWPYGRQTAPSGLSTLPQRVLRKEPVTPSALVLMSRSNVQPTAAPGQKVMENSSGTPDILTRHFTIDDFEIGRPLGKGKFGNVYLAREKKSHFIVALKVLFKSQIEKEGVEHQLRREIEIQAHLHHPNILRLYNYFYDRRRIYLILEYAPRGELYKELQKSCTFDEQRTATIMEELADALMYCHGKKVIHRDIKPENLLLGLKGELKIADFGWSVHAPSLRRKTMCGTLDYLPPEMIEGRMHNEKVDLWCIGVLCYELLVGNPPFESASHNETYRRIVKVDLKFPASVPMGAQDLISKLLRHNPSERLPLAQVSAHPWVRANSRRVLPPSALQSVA
smiles,measurement,setting,value
"Cn1cc(-c2cnc(N)c3c(-c4ccc5c(c4)CCN5C(=O)Cc4ccccc4)csc23)cn1 [GSK'074, GSK2593074A]",remaining binding at 0.1 µM,EPHB6 [1],< 1%
same,remaining binding at 0.1 µM,CSF1R [2],< 1%
same,remaining binding at 0.1 µM,KIT [3],< 1%
same,Kd,RIP1 [4],12 nM
same,Kd,RIP3,130 nM
same,remaining binding at 0.1 µM,MEK5 [5],< 1%
same,remaining binding at 0.1 µM,[6],24%
same,remaining binding at 0.1 µM,[7],2.2%
same,remaining binding at 0.1 µM,[8],6.1%
same,remaining binding at 0.1 µM,[9],0.3%
same,remaining binding at 0.1 µM,[10],19%
same,remaining binding at 0.1 µM,ABL1-nonphosphorylated,3.3%
same,remaining binding at 0.1 µM,ABL1-phosphorylated,25%
same,remaining binding at 0.1 µM,AURKB,9.3%
same,remaining binding at 0.1 µM,AURKC,19%
same,remaining binding at 0.1 µM,CSF1R [11],0.5%
same,remaining binding at 0.1 µM,EPHB6 [12],0.5%
same,remaining binding at 0.1 µM,FLT3,19%
same,remaining binding at 0.1 µM,FLT3(K663Q),30%
same,remaining binding at 0.1 µM,HPK1,30%
same,remaining binding at 0.1 µM,KIT [13],0.35%
same,remaining binding at 0.1 µM,KIT(L576P),0%
same,remaining binding at 0.1 µM,KIT(V559D),0.05%
same,remaining binding at 0.1 µM,LOK,30%
same,remaining binding at 0.1 µM,MAP4K5,5.5%
same,remaining binding at 0.1 µM,MEK5 [14],0.1%
same,remaining binding at 0.1 µM,MST1,13%
same,remaining binding at 0.1 µM,PDGFRA,13%
same,remaining binding at 0.1 µM,PDGFRB,1.3%
same,remaining binding at 0.1 µM,PRKD2,32%
same,remaining binding at 0.1 µM,RIP1 [15],0%
same,remaining binding at 0.1 µM,RIPK2,12%
